Tested on: caries
Assay: optimum photosensitiser concentration for photo-activated disinfection of caries
Conditions: at 635 nm
Protocol: The concentration of tolonium chloride will depend on the specific application and chosen wavelength. We have determined an optimum at 635 nm for caries of 12 μg/ml. Longer wavelengths and other applications especially periodontal disease where in vivo dilution may occur are likely to need greater concentrations, whereas shorter wavelengths may require reduced concentrations. Preferably, therefore, the concentration should fall within an overall range between 1 and 200 μg/ml. […] The reduction in efficacy as the concentration increases beyond the optimum is thought to be due to the accompanying increasing absorption limiting the light transmission through the treatment zone.

`Cc1cc2nc3ccc(N(C)C)cc3[s+]c2cc1N` [tolonium chloride] showed an optimum concentration of 12 µg/mL.
